Assay results as given in PMC6889545, “ALW peptide ameliorates lupus nephritis in MRL/lpr mice” (Arthritis Research & Therapy, 2019).
Read-outs that look alike come from different tables or passages of the source. Non-standard residues stand in square brackets, D forms with d. Residues, ends and D or L forms follow the SMILES beside them.

What was measured:
NZB×NZW F1 lupus mice = details: intravenous once a month; cited from earlier work
Description: (§1) Given the key role of anti-dsDNA antibodies in the pathogenesis of LN, development of specific inhibitors of anti-dsDNA antibodies may be a good method to manage LN. Several polypeptides, specifically reacting with mouse anti-dsDNA IgG2b, were identified by the peptide display phage library. […] FISLE-412, a small peptidomimetic modified from DWEYS peptide, blocked the binding of DNA to monoclonal mouse and human anti-dsDNA antibodies with improved affinity and selectivity. In ...

murine model = details: cited from earlier work
Description: as §1, with “IgG2a and IgG3 had higher affinity for autoantigens in the kidney, followed by IgG1, IgG2b, and IgM [12]. DWEYS peptide (DWEYSVWLSN) is a DNA-mimic peptide screened by a mouse pathogenic monoclonal antibody (IgG2b, R4A clone). […] FISLE-412, a peptide compound mimicking the molecular structure of DWEYS ... || Given” for “Given”

BALB/c mice = assay: Induction of anti-dsDNA antibodies after intravenous peptide injection; assay type: in vivo, mouse; details: same dosages, frequencies and treatment period as MRL/lpr study, data not shown
Description: The ALW and PLP peptides were also intravenously injected into BALB/c mice with the same dosages, frequencies, and treatment period. […] All animal protocols were approved by the Hospital Research Ethics Committee.

[1] = Plasma pharmacokinetics of the peptides after a single dose; assay type: in vivo; details: 8-week-old male CD1 mice, single intravenous dose 12.5 mg/kg, plasma 0-24 h, LC-MS/MS, WinNonlin 6.1; for MRT: male, CD1, mouse, plasma, iv, 12.5 mg/kg; for clearance: read-out: Cl (plasma clearance); for Vd: read-out: Vss
Experimental: (§2) Two 12-amino acid peptides (ALWPPNLHAWVP [ALW]; PLPHNPWVLAAW [PLP]) were synthetized by Sangon Biotech Company (China). The PLP peptide was a scrambled peptide with amino acid residues identical to ALW peptide. The first and last amino acids of both peptides are D-form, and the others are L-form. To study the pharmacokinetic characteristics of both peptides in vivo, 8-week-old male CD1 mice were administrated with ALW or PLP peptide at a single dose of 12.5 mg/kg. Plasma samples were collected at each time point before (0) and 0.083, 0.25, 0.5, 1, 2, 4, 8, and 24 h after administration. To assess the biodistribution of ALW peptide in vivo, tissues including the kidney, liver, and lung were collected at 0.083, 0.25, 0.5, 1, 2, and 4 h after administration. Then, the concentration of two peptides in mouse plasma and tissues were quantitatively determined by liquid chromatography-tandem mass spectrometry (LC-MS/MS). The pharmacokinetic parameters were calculated by WinNonlin 6.1 software according to the […] model.

[2] = Solubility of the peptides; assay type: physicochemical; details: for Maximum solubility: injection solution in saline
Experimental: For the in vivo study, 40 MRL/lpr mice were randomly divided into four groups. Mice in the ALW group (n = 12) received an intravenous injection of 100 μg/mL ALW peptide in saline every other day, mice in the PLP group (n = 12) were injected intravenously with 100 μg/mL PLP peptide in saline, mice in the NaCl group (n = 8) were given normal saline intravenously, and mice in the blank group (n = 8) were not treated. The dosages were decided in a preliminary experiment, showing that the concentration of anti-dsDNA IgG was about 34.74 ± 3.47 ng/mL in MRL/lpr mice aged 24 weeks. By calculating the molecular weights of anti-dsDNA IgG (150 kDa) to ALW peptide (1.4 kDa), the ALW concentration of 100 μg/mL is sufficient to maintain a high molar ratio (much higher than 5 times of anti-dsDNA IgG). In fact, the maximum solubility of PLP peptide is also 100 μg/mL, less than ALW peptide. Urine was collected every 2 weeks. Six weeks later, the mice were euthanized. Blood, urine, and kidneys were harvested for further analysis.

[3] = Tissue biodistribution of ALW peptide (kidney, liver, lung); assay type: in vivo, CD1 mice
Experimental: as §2

anti-dsDNA IgGs = details: cited from earlier work
Description: The ALW peptide is a small molecule with a molecular weight of 1.4 kDa. […] Because there is no methionine, cysteine, and glutamine, which are related with the oxidation, cyclization, and degradation of peptides, ALW may have greater physiological stability. In addition, the ALW peptide has a relatively neutral net charge (pI = 7.38), which probably decrease unnecessary, nonspecific protein-protein interactions. […] Here, after chemical modification ...

[4] = read-out: MRT0-inf (mean residence time) in plasma
[5] = 8-week-old male CD1 mice, single intravenous dose 12.5 mg/kg, kidney tissue 0.083-4 h, LC-MS/MS, WinNonlin 6.1
[6] = 8-week-old male CD1 mice, single intravenous dose 12.5 mg/kg, liver tissue 0.083-4 h, LC-MS/MS, WinNonlin 6.1
[7] = 8-week-old male CD1 mice, single intravenous dose 12.5 mg/kg, lung tissue 0.083-4 h, LC-MS/MS, WinNonlin 6.1

For “FIEWNKLRFRQGLEW [pCons, 15-mer peptide based on MHC class I and II T cell determinants in the VH region of murine anti-dsDNA IgG2a or IgG2b]”, the “Emergence of multiple autoantibodies” value (NZB×NZW F1 lupus mice) is given as “delayed the emergence of multiple autoantibodies”.

In the case of “DWEYSVWLSN [DWEYS peptide, DNA-mimic peptide … screened by a mouse pathogenic monoclonal antibody (IgG2b, R4A clone)]”, the “Renal deposition of IgG2b” value (murine model; SCID mice) is listed as “protected SCID mice from the renal deposition of IgG2b” and the “Renal IgG deposition” value (murine model; murine model, intraperitoneal administration) is listed as “evidently depressed”.

With `CC(C)C[C@H](NC(=O)[C@@H](NC(=O)[C@H](Cc1c[nH]c2ccccc12)NC(=O)[C@@H]1CCCN1C(=O)[C@H](CC(N)=O)NC(=O)[C@H](Cc1c[nH]cn1)NC(=O)[C@@H]1CCCN1C(=O)[C@H](CC(C)C)NC(=O)[C@H]1CCCN1)C(C)C)C(=O)N[C@@H](C)C(=O)N[C@@H](C)C(=O)N[C@H](Cc1c[nH]c2ccccc12)C(=O)O` [PLP peptide, reference compound] (H-[dP]LPHNPWVLAA[dW]-OH) the “Anti-dsDNA antibodies in sera after treatment (immunogenicity)” value (from here on “Anti-dsDNA antibodies in sera”) (BALB/c mice) was “no detectable anti-dsDNA antibodies”, the “MRT0-inf (mean residence time) in plasma” value [1] was 13.6 min and the MRT [1, 4] was 13.8 min. For the same molecule, the MRT ([1]; read-out: MRT0-last in plasma) was 11.4 min, the C0 ([1]; mouse) was 85400 ng/mL and the AUC(0-inf) ([1]; mouse, read-out: AUC0-inf in plasma) was 14100 ng·h/mL. It also gave an AUC(0-t) ([1]; mouse, read-out: AUC0-last in plasma) of 14100 ng·h/mL, a clearance ([1]; mouse) of 14.7 mL/min/kg and a Vd ([1]; mouse) of 0.2 L/kg. It also gave a Maximum solubility [2] of 100 µg/mL.

With `CC(C)C[C@H](NC(=O)[C@H](CC(N)=O)NC(=O)[C@@H]1CCCN1C(=O)[C@@H]1CCCN1C(=O)[C@H](Cc1c[nH]c2ccccc12)NC(=O)[C@H](CC(C)C)NC(=O)[C@@H](C)N)C(=O)N[C@@H](Cc1c[nH]cn1)C(=O)N[C@@H](C)C(=O)N[C@@H](Cc1c[nH]c2ccccc12)C(=O)N[C@H](C(=O)N1CCC[C@@H]1C(=O)O)C(C)C` [ALW peptide] (H-[dA]LWPPNLHAWV[dP]-OH) the “Anti-dsDNA antibodies in sera” value (BALB/c mice) was “induced no anti-dsDNA antibodies”, the “Anti-dsDNA antibodies in sera” value (BALB/c mice; listed as ALW) was “no detectable anti-dsDNA antibodies” and the AUC0-inf in kidney [3, 5] was 28.80 ng·h/g. It also gave an AUC0-last in kidney [3, 5] of 25.51 ng·h/g, a Cmax in kidney [3, 5] of 60.00 ng/g and an MRT0-inf in kidney [3, 5] of 27.6 min. The MRT0-last in kidney [3, 5] was 19.8 min, the T1/2 in kidney [3, 5] was 18.6 min and the Tmax in kidney [3, 5] was 4.8 min. For the same molecule, the “Kp, kidney” value ([3]; 8-week-old male CD1 mice, single intravenous dose 12.5 mg/kg, kidney versus plasma) was 0.11, the AUC0-last in liver [3, 6] was 2.29 ng·h/g and the Cmax in liver [3, 6] was 11.80 ng/g. For the same molecule, the MRT0-last in liver [3, 6] was 8.4 min, the Tmax in liver [3, 6] was 4.8 min and the “Kp, liver” value ([3]; 8-week-old male CD1 mice, single intravenous dose 12.5 mg/kg, liver versus plasma) was 0.01. It also gave an AUC0-last in lung [3, 7] of 5.10 ng·h/g, a Cmax in lung [3, 7] of 7.33 ng/g and an MRT0-last in lung [3, 7] of 29.4 min. For the same molecule, the Tmax in lung [3, 7] was 15 min, the “Kp, lung” value ([3]; 8-week-old male CD1 mice, single intravenous dose 12.5 mg/kg, lung versus plasma) was 0.02 and the “Renal tissue exposure as share of plasma exposure” value ([3]; CD1 mice, intravenous 12.5 mg/kg, kidney) was “approximately 11.2%”. For the same molecule, the “Liver tissue exposure as share of plasma exposure” value ([3]; CD1 mice, intravenous 12.5 mg/kg, liver) was 0.892%, the “Lung tissue exposure as share of plasma exposure” value ([3]; CD1 mice, intravenous 12.5 mg/kg, lung) was 1.99% and the “Resistance of the peptide to catalysis” value (anti-dsDNA IgGs; after substituting two terminal residues A and P with D-form ones) was “enhanced”. For the same molecule, the “Catalysis of the peptide by anti-dsDNA IgGs” value (anti-dsDNA IgGs; unmodified peptide) was “catalyzed weakly”, the AUC0-inf in plasma [1] was 264 ng·h/mL and the AUC0-last in plasma [1] was 258 ng·h/mL. For the same molecule, the “MRT0-inf (mean residence time) in plasma” value [1] was 7.8 min, the “T1/2 (elimination half-life) in plasma” value [1] was 18.9 min and the MRT [1, 4] was 7.8 min. The MRT ([1]; read-out: MRT0-last in plasma) was 6 min, the C0 ([1]; mouse) was 3640 ng/mL and the clearance ([1]; mouse) was 789 mL/min/kg. The half-life ([1]; mouse, read-out: T1/2 (elimination half-life) in plasma (converted)) was 19.2 min, the Vd ([1]; mouse) was 6.16 L/kg and the Maximum solubility [2] was over 100 µg/mL. For the same molecule, the “Solubility in water or PBS” value ([2]; water or PBS) was “easy to dissolve in water or PBS”.
